Data on 1 substance can be found in patent EP0245209A1, “Milbemycin derivatives, their preparation and their use as pesticides” (CIBA-GEIGY AG, priority 1986, dated 1987).

Some results are limits rather than exact numbers.

Common to all, as to type: in vivo
Data set [1] deals with LI-Larven von Lucilia sericata. The data set can be described thus: Action against L1 larvae of Lucilia sericata (larval culture medium, mortality). Conditions: reduced concentration of 100 ppm; after 4 days. The protocol:
Beispiel B.2: Wirkung gegen LI-Larven von Lucilia sericata
(§1) 1 ml einer wässrigen Suspension der zu prüfenden Aktivsubstanz werden so mit 3 ml eines speziellen Larvenzuchtmediums bei ca. 50°C vermischt, dass ein Homogenisat von wahlweise 250 ppm oder 100 ppm Wirkstoffgehalt entsteht. In jede Reagenzglas-Probe werden ca. 30 Lucilia-Larven (L1) eingesetzt. Nach 4 Tagen wird die Mortalitätsrate bestimmt. Die Verbindungen aus den Herstellungsbeispielen zeigen bei 250 ppm eine Wirkung von 100 %, wobei Verbindungen aus den Herstellungsbeispielen diese Wirkung auch noch bei der reduzierten Wirkstoffkonzentration von 100 ppm erzielen, wie beispielsweise die Verbindungen Nr. 1.10, 1.18, 1.26, 1.34, 1.39, 1.43, 1.46, 1.54, 1.58, 1.62, 1.82, 1.90 und 1.114.

Data set [2] deals with Ll-Larven von Lucilia cuprina. Nature of the data set: Action against L1 larvae of Lucilia cuprina (as B.2). To be noted: niedrigere Konzentrationen (below 100 ppm). As for the experimental part: as §1
Beispiel B.3: Wirkung gegen Ll-Larven von Lucilia cuprina
Der Test wird wie unter B.2 beschrieben durchgeführt, jedoch mit Larven von Lucilia cuprina. […] Bei manchen Verbindungen wird dieser Effekt bereits mit niedrigeren Konzentrationen erreicht, beispielsweise mit den Verbindungen Nr. 1.34, 1.90 und 1.114.

The next data set deals with Meloidogyne incognita. The data set can be described thus: Soil nematicidal action against Meloidogyne incognita (tomato plants, root-knot index). To be noted: after 4 weeks. The protocol: Beispiel B.4: Bodennematizide Wirkung gegen Meloidogyne incognita
(§2) Eier von Meloidogyne incognita werden in Sand eingemischt. Dieses Gemisch wird dann in 200 ml fassende Tontöpfe eingebracht (5000 Eier pro Topf). Am gleichen Tag wird pro Topf eine 3 Wochen alte Tomatenpflanze gepflanzt und der aus 50 %-igem Emulsionskonzentrat formulierte Wirkstoff mittels Druckapplikation in die Töpfe hineingegeben. Die eingetopften Pflanzen werden nun bei einer Temperatur von 26!1°C und einer relativen Luftfeuchtigkeit von 60 % in einem Gewächshaus aufgestellt. Nach Ablauf von 4 Wochen erfolgt eine Evaluierung durch Untersuchung der Pflanzen auf Wurzelgallbildung nach dem sogenannten Wurzelgall-Index ("Knot Index").

The next data set concerns Caenorhabditis elegans. Nature of the data set: Soil nematicidal action against Caenorhabditis elegans (as B.4). Conditions: test as B.4. The protocol:
as §2
Beispiel B.5: Bodennematizide Wirkung gegen Caenorhabditis elegans
Der Test wird wie unter B.4 beschrieben durchgeführt, jedoch mit Caenorhabditis elegans. Die Verbindungn der Herstellungsbeispiele zeigen in diesem Test eine gute Wirksamkeit. Um eine fast vollständige Hemmung der Reproduktion zu erreichen, genügen bei manchen Verbindungen Konzentrationen von 1 ppm und weniger, wie beispielsweise bei den Verbindungen Nr. 1.39, 1.70 und 1.90 und vor allem Nr. 1.2, 1.3, 1.26, 1.43 und 1.66.

In another data set the test system is Aedes aegypti. The data set can be described thus: Larvicidal action against Aedes aegypti (larvae in water). To be noted: niedrigere Konzentrationen (below 3 ppm). As for the experimental part: Beispiel B.10: Larvizidwirkung gegen Aedes aegypti
Auf die Oberfläche von 150 ml Wasser, das sich in einem Behälter befindet, wird soviel einer 0,1 %igen acetonischen Lösung des Wirkstoffes pipettiert, dass Konzentrationen von wahlweise 12,5 ppm, 3,3 ppm und 1,6 ppm erhalten werden. Nach Verdunsten des Acetons wird der Behälter mit ca. 30-40 3 Tage alten Aedes-Larven beschickt. Nach 1, 2 und 5 Tagen wird die Mortalität geprüft.

Turning to “13β-([-]-Menthyloxy)-carbonyloxy-milbemycin A4 [1.90]”, the “Wirkung (Mortalitätsrate)” value in data set [1] came out at 100%. Besides, the “Vernichtung des Schädlings” value in data set [2] was “vollständige Vernichtung”. Also, the “Konzentration für fast vollständige Hemmung der Reproduktion” value with Meloidogyne incognita and in the data set on Caenorhabditis elegans was ≤ 1 ppm each time. The “Abtötung sämtlicher Larven” value in the data set on Aedes aegypti was “vollständige Abtötung”.
